This is an account of results in doi:10.1101/2024.08.19.608619, “Discovery of potent SARS-CoV-2 nsp3 macrodomain inhibitors uncovers lack of translation to cellular antiviral response” (bioRxiv, 2024).

What all share (assay): biochemical
What all share (parameters): In vitro kinase panel profiling, per cent remaining kinase activity at 10 uM

The target of one assay is CDK7/cyclinH/MAT1(h) (Homo sapiens, UniProt P50613). As to conditions: atp_concentration=90, read-out: % of control remaining. An excerpt: (§1) We derisk potential for off-target activity by profiling the compound in a CEREP panel, a standard secondary pharmacology assessment, as well as a kinase panel to derisk a potential hinge-binding motif in our leads, and a PARP panel to derisk activity against human […]. Reassuringly, the compounds are selective, with the only off-targets being moderate human CHRM2 and KOR receptors activity associated with ASAP-0011198.

Another assay addresses T1, IRAK4(h) (Homo sapiens, UniProt Q9NWZ3).
T1 sequence (Q9NWZ3 1-460): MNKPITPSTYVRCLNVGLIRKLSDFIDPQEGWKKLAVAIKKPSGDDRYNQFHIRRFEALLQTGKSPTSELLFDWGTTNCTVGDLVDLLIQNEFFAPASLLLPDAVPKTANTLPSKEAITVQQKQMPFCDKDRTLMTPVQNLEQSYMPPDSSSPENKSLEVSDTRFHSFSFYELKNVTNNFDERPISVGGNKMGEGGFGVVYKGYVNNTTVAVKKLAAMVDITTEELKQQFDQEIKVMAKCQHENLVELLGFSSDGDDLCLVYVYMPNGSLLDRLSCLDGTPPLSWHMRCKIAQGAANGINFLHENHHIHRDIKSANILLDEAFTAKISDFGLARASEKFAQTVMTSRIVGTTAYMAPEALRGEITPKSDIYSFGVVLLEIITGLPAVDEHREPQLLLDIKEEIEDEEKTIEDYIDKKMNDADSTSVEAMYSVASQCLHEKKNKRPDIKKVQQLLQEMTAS
The note with it: atp_concentration=200, read-out: % of control remaining.
From the text: as §1

The target in the next assay is T2, PKG1α(h) (Homo sapiens, UniProt Q13976).
T2 construct: gene PRKG1; isoform alpha
T2 sequence (Q13976 1-671): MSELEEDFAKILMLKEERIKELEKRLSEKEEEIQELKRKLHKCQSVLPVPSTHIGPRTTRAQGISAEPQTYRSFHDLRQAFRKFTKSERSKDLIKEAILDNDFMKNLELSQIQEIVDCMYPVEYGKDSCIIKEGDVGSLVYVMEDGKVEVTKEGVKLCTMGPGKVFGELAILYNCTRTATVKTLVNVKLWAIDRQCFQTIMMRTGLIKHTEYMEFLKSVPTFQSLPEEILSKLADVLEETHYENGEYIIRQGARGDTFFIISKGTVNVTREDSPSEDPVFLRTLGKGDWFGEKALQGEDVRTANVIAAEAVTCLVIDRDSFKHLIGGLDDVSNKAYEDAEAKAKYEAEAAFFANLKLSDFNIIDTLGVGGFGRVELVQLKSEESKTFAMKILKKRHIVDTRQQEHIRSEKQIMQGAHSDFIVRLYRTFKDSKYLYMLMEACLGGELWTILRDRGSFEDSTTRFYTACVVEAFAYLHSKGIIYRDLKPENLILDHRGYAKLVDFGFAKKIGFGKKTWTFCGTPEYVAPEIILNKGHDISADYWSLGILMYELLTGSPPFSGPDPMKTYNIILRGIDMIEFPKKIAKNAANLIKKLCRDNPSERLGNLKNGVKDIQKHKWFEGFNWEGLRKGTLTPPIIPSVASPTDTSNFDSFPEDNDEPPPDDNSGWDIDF
The note with it: atp_concentration=90, read-out: % of control remaining.
From the text: as §1

Another assay has as its target T3, GSK3β(h) (Homo sapiens, UniProt P49841).
T3 construct: gene GSK3B
The note with it: atp_concentration=15, read-out: % of control remaining.
From the text: as §1

For the next assay, the target named is T4, Aurora-A(h) (Homo sapiens, UniProt O14965).
T4 construct: gene AURKA
T4 sequence (O14965 1-403): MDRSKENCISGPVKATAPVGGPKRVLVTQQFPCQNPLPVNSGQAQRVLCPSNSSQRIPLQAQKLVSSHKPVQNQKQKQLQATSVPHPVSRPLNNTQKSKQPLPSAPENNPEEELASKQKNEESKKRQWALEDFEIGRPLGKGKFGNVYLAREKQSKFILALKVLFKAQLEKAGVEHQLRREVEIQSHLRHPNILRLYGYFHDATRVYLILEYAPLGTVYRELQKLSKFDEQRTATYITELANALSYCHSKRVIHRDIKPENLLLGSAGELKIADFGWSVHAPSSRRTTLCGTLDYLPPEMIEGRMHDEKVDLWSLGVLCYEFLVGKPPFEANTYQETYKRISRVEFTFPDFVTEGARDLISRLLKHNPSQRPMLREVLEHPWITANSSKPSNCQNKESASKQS
As to conditions: atp_concentration=15, read-out: % of control remaining.
From the text: as §1

The target of a further assay is T5, Rsk1(h) (Homo sapiens, UniProt Q15418).
T5 construct: gene RPS6KA1
The note with it: atp_concentration=45, read-out: % of control remaining.
From the text: as §1

The target of a further assay is CDK1/cyclinB(h) (Homo sapiens, UniProt P06493). As to conditions: atp_concentration=45, read-out: % of control remaining.
From the text: as §1

Where two headings read alike, the source gives them in different places.

Chain of CDK1/cyclinB(h) (P06493 whole entry): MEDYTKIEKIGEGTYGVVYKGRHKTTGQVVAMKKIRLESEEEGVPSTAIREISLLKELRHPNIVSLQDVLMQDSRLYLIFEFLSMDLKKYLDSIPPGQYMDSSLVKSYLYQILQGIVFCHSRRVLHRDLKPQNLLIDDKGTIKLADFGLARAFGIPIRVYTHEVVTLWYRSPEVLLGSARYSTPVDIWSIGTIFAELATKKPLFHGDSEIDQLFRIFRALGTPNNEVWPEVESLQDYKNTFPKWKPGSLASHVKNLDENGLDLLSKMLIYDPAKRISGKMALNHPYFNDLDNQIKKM
Chain of CDK1/cyclinB(h) (P14635 whole entry partner): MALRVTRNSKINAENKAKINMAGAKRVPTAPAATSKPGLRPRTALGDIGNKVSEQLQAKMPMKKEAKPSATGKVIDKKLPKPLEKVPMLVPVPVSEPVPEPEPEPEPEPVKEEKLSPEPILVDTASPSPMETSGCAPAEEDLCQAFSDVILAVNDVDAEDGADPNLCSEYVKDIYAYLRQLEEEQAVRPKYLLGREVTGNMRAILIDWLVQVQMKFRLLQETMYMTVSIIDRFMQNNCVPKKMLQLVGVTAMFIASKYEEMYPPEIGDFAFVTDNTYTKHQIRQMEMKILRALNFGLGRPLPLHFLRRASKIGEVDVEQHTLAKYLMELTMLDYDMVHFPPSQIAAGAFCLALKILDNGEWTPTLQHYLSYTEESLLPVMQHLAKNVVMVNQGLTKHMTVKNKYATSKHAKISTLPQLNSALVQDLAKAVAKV
T5 sequence (Q15418 whole entry): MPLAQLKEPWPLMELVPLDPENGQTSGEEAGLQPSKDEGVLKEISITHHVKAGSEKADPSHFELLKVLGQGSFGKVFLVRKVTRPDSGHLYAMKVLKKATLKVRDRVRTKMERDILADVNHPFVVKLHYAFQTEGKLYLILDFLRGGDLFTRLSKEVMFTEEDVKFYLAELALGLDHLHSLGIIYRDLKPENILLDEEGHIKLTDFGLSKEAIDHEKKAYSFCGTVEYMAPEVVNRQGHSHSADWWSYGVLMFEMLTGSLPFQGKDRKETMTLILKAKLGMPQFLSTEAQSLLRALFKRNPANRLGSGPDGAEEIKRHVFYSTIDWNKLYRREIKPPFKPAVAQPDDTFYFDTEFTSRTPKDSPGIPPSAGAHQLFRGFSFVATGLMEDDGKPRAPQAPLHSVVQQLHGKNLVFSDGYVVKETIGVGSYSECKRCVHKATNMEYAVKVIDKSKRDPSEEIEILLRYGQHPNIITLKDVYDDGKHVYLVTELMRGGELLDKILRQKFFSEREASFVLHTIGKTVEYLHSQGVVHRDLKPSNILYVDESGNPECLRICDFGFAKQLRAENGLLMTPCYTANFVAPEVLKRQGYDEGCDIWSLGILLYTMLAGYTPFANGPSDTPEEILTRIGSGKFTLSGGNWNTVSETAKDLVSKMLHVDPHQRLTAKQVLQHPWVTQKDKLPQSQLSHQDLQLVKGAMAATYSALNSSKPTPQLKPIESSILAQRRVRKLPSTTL
Chain of CDK7/cyclinH/MAT1(h) (P50613 whole entry): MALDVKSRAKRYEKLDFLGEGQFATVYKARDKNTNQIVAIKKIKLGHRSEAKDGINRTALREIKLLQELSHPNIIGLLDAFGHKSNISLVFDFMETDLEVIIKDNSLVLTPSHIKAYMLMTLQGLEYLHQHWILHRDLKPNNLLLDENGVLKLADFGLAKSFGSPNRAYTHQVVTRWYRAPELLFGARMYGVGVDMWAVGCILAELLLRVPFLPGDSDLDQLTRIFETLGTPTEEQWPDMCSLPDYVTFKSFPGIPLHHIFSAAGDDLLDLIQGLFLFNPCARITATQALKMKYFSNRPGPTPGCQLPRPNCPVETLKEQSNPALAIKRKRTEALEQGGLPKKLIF
Chain of CDK7/cyclinH/MAT1(h) (P51946 whole entry partner): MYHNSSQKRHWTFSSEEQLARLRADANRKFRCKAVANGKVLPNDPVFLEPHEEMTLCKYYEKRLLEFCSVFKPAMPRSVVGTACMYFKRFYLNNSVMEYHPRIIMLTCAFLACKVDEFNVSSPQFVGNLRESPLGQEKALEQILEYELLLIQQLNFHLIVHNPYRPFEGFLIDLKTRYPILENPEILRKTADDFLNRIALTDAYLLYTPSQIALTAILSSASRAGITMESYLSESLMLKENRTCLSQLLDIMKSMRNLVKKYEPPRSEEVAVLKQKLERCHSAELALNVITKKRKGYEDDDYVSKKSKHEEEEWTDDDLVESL
Chain of CDK7/cyclinH/MAT1(h) (P51948 whole entry partner): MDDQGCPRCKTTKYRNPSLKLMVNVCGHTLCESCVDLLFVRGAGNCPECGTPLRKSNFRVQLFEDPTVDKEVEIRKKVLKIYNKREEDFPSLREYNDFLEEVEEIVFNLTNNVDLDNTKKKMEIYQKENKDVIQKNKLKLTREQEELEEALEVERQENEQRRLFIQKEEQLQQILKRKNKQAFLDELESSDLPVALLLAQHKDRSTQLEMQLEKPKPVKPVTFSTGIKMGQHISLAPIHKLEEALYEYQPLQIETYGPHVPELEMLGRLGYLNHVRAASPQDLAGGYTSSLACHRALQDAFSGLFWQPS
T3 sequence (P49841 whole entry): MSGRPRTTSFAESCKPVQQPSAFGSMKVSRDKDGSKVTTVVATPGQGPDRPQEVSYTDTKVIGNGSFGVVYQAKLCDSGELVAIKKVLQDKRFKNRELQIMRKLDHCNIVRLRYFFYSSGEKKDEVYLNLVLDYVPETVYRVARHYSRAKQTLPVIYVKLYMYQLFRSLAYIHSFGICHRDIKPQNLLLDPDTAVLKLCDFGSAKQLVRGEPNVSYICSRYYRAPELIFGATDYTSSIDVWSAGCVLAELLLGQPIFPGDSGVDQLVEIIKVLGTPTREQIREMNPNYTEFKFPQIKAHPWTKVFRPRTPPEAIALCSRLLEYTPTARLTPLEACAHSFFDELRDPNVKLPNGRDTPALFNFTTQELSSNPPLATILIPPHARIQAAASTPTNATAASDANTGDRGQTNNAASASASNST

In the case of `Cc1nn(C)cc1-c1cc2c(NC(c3ccc4c(c3)S(=O)(=O)CCC4)C(C)C)ncnc2[nH]1` (stereo not drawn) [ASAP-0011446], the remaining activity at 10 µM worked out at 93% on CDK7/cyclinH/MAT1(h) (batch_name=ASAP-0011446-002); 107% on IRAK4(h) (batch_name=ASAP-0011446-002); 128% at PKG1α(h) (batch_name=ASAP-0011446-002); 96% on GSK3β(h) (batch_name=ASAP-0011446-002); 55% on Aurora-A(h) (batch_name=ASAP-0011446-002); 110% on Rsk1(h) (batch_name=ASAP-0011446-002). Besides, on CDK1/cyclinB(h) (batch_name=ASAP-0011446-002), the remaining activity at 10 µM was found to be 91%.
`C[C@H](C(=O)O)[C@@H](NC(=O)c1ncnc2[nH]ccc12)c1ccc(Br)cc1` [ASAP-0014722]: the remaining activity at 10 µM on CDK7/cyclinH/MAT1(h) (batch_name=ASAP-0014722-002) worked out at 99%; at IRAK4(h) (batch_name=ASAP-0014722-002), 106%; on PKG1α(h) (batch_name=ASAP-0014722-002), 118%; on GSK3β(h) (batch_name=ASAP-0014722-002) it was 93%; on Aurora-A(h) (batch_name=ASAP-0014722-002), 72%; on Rsk1(h) (batch_name=ASAP-0014722-002) it was 88%. At CDK1/cyclinB(h) (batch_name=ASAP-0014722-002), the remaining activity at 10 µM worked out at 92%.
`COc1ccc([C@H](Cc2nnn[nH]2)NC(=O)c2ncnc3[nH]ccc23)cc1` [ASAP-0015381]: the remaining activity at 10 µM stood at 107% at CDK7/cyclinH/MAT1(h) (batch_name=ASAP-0015381-001); 109% at IRAK4(h) (batch_name=ASAP-0015381-001); 121% on PKG1α(h) (batch_name=ASAP-0015381-001); 90% at GSK3β(h) (batch_name=ASAP-0015381-001); 84% at Aurora-A(h) (batch_name=ASAP-0015381-001); 102% on Rsk1(h) (batch_name=ASAP-0015381-001). Besides, the remaining activity at 10 µM on CDK1/cyclinB(h) (batch_name=ASAP-0015381-001) was determined as 98%.
